Values of other authors as cited in patent publication US20210137108A1, “REDUCED INHALATION HAZARD OF QUATERNARY AMMONIUM COMPOUNDS-PH DRIVEN PHYSIOLOGICAL RESPONSE” (priority 2016, published 2021).
Like-named read-outs stand apart in the source and are kept apart here.

Tests used:
rats = system: rats; parameters: key: L is lethal dose; S indicates survival
[1] = rats
[2] = system: lung biomarkers, Clara cells, blood-air barrier; conditions: inhalation exposure at 35 mg per cubic meter

Compound | lethal dose / survival (rats; i.a., dose 15-20 mg/kg) | lethal dose / survival (rats; i.v., dose 15-20 mg/kg) | lethal dose / survival (rats; p.o., dose 250 mg/kg) | lethal dose / survival (rats; p.o., dose 1250 mg/kg) | pKa | lethal dose / survival (rats; i.a., dose 100-150 mg/kg) | lethal dose / survival (rats; i.v., dose 100-150 mg/kg) | concentrations in the lungs and kidneys compared to levels observed in the liver and tissue [1] | Clara cells and CC16 protein concentration [2] | changes in lung biomarker levels [2] | inflammatory response and blood-air barrier [2] | influx of proteins from blood vessels and alveolar space [2]
N=C(NCCCCCCNC(=N)NC(=N)Nc1ccc(Cl)cc1)NC(=N)Nc1ccc(Cl)cc1.O=C(O)[C@H](O)[C@@H](O)[C@H](O)[C@H](O)CO.O=C(O)[C@H](O)[C@@H](O)[C@H](O)[C@H](O)CO [Chlorhexidine gluconate] | L | L | S | S and (poor) | – | – | – | – | – | – | – | –
NS(=O)(=O)O [Sulfamic Acid] | – | – | – | – | 1 | – | – | – | – | – | – | –
Alkyldiaminoethylglycine | S | S | S | L | – | L | L | – | – | – | – | –
Benzalkonium Chloride | L | L | S | L | – | – | – | several times higher | Damage to Clara cells and a reduced concentration in CC16 protein | significant changes | strong inflammatory response and damage to the blood-air barrier | massive influx of proteins
Soidum dodecylbenzensulfonate | S | S | S | L | – | L | L | – | – | – | – | –
